Patent US20210244686A1, “Novel Systems And Methods For The Therapeutic Use of Cannabinoids or Cannabinoid Analogs to Increase The Lipid Order of Cholesterol Containing Cell Membranes” (The Regents of the University of Colorado a body corporate, priority 2018, published 2021)

System: SK-N-BE(2) cells
Test: Lipidomics of total lipid abundance
Assay type: cell-based, human
Description: To investigate the effect of CBD on cholesterol storage, the present inventors performed follow up experiments to determine the total cellular amounts of small molecule markers of cholesterol storage as a function of CBD exposure. The inventors detected accumulation of multiple species of cholesteryl esters with diverse chain length and degree of unsaturation in the acyl chain (FIG. 4A).
Since this esterification requires acyl CoA reactants, the inventors surveyed our dataset for evidence of fatty acid utilization.
Thus, the present inventors found multiple lines of evidence consistent with activation of cholesterol esterification in the CBD response. To further support the claim that CBD elicits cholesterol storage, the present inventors used live cell confocal microscopy of SK-N-BE(2) cells stained with both fluorescent cholesterol (22-NBD-Cholesterol) and the lipid droplet dye nile red (FIG. 4E) to quantify the number and size of lipid droplets. […] Altogether, these combined experiments highlight that the CBD response in cells includes activation of cholesterol esterification and storage.
Extraction of cholesterol, precursors, free fatty acids, cholesteryl esters, and phospho lipids were performed in the following manner. SK-N-BE(2) cells in 10 cm dishes were washed with 10 mL PBS twice and then cells were scraped and pelleted at 400 rcf for 2 minutes. Cell pellets were resuspended in 100% methanol at 4° C. and sonicate at 70% power in 10 pulses, 5 seconds on/5 seconds off. The resulting lysate was rotated for 60 minutes at room temperature, followed by centrifugation for 20 min at 4° C. (16,100 rcf). Subcellular fractionation of organelles from intact SK-N-BE(2) cells was done in the following manner to assess subcellular CBD distribution. Cells in 10 cm culture dishes were harvest by washing twice with 10 mL PBS at room temperature, followed by trypsinization using a cell culture grade Trypsin/EDTA solution (ThermoFisher). Trypsinized cells were quenched by addition of 2 mL 10% FBS containing DMEM and cells were pelleted by centrifugation for 2 min at 4° C. (200 rcf). Cell pellets were wash one time with 10 mL PBS, and resuspended in 1 mL Tween20 Buffer (1×PBS, 0.05% Tween20, 5 mM EDTA). This lysate was subjected to mechanical disruption using a 1 mL glass Dounce homogenizer, 10 full passes at 4° C. Nuclei was pelleted from homogenate by centrifugation for 5 min at 4° C. (2,000 rcf). Supernatant was separated and insoluble ER membranes were pelleted by centrifugation for 10 min at 4° C. (4,000 rcf). Supernatant was separated and insoluble plasma membranes were pelleted by centrifugation for 10 min at 4° C. (16,000 rcf). […]

Q: For C=C(C)[C@@H]1CCC(C)=C[C@H]1c1c(O)cc(CCCCC)cc1O [CBD, cannabidiol], which cholesteryl esters (CBD 20 μM vs vehicle) is on record?
A: Its cholesteryl esters is “accumulation”.

Q: And the “free fatty acid levels” value (CBD 20 μM vs vehicle)?
A: Its value is “reduced”.

Q: What about the free phospholipid head-groups (CBD 20 μM vs vehicle) of the same compound?
A: The free phospholipid head-groups was “accumulation”.

Q: And the “phosphatidylcholine and phosphatidylethanolamine species abundance” value (CBD treated vs vehicle treated cells)?
A: The value was “reduced abundance”.
